According to ChEMBL document CHEMBL3507680, “University of Dundee, Gates Library screen for HepG2 cell viability”:

Test: Human HepG2 cell viability assay in 384 well format
Format: toxicity, cell-based
Design: dose 125 nL, time 70.5 hour; concentration not given beside the values
Conditions: HepG2 cells, read-out: Inhibition

| SMILES | cytotoxicity at 70.5 h |
| --- | --- |
| Cc1cc(N2CCC(C(=O)O)(n3ccc(C(C)(C)C)n3)CC2)nc(N)n1 | 0.151% |
| CNc1ccnc(NCC(=O)Nc2cc(C)ccc2OC)n1 | -5.67% |
| COc1ccccc1OCCCc1cc(C#N)ccn1 | 6.71% |
| O=C(O)[C@]12CCCN(Cc3nccs3)[C@@H]1CCN(c1cnccn1)C2 | -5.49% |
| CSc1nccc(N2CCC(NCc3nc(C)cc(C)n3)CC2)n1 | 1.01% |
| Cc1nc(CCCN2CCOCC2)n(Cc2ccc(F)cc2)n1 | -12.5% |
| Cn1cc(Cl)c(CN2CCn3nc(C(=O)Nc4ccccc4)cc3C2)n1 | 32.8% |
| CCOCCC(=O)N1CCc2cccc(S(=O)(=O)N3CCOCC3)c2C1 | -9.19% |
| COCc1cc(CN(C)C(=O)c2c[nH]nc2-c2cccc(F)c2)n[nH]1 | 19.4% |
| C[C@@H]1CN(S(=O)(=O)N2CCCC2)C[C@@]1(O)C1CC1 | -4.68% |
| Cc1cc(C(=O)N2C[C@@H]3[C@@H](CN(C)CCCn4cccn4)[C@@H]3C2)c(C)o1 | -0.851% |
| c1ccc(C(CC2CN(Cc3c[nH]cn3)CCO2)c2ccccc2)cc1 (centres undefined) | -5.4% |
| Cn1ncc2c(NCCCOc3cccnc3)nc(C3CCCC3)nc21 | 16.2% |
| CC[C@H]1CN(C(=O)CCn2c(C)cccc2=O)CC[C@@]1(C)O | -4.82% |
| CCc1nnsc1C(=O)N1CCCC(COc2ccc(F)cc2)C1 (centres undefined) | -4.43% |
| CCNC(=O)[C@@H]1CCCN1C(=O)c1cccc(CCC(C)(C)O)c1 | -7.73% |
| COCCN(Cc1cnn(C)c1)CC1CCN(C(C)C)CC1 | -1.39% |
| CN(CCc1ccccn1)[C@@H]1CCN(c2cc(C(N)=O)ccn2)C[C@H]1O | -3.34% |
| COc1ccc(-n2ncc(C(C)NC3CCOCC3)c2C)cc1 (centres undefined) | -1.36% |
| Cc1nc(NCCC23CCCN2CCC3)cc(C2CCNCC2)n1 | -7.1% |
| CCn1nc(C)c(CCNC(=O)c2coc(CN3CCOCC3)c2)c1C | 0.862% |
| OC(CNc1ncnc2c1CCNCC2)C(F)(F)F (centres undefined) | -4.22% |

| SMILES | cytotoxicity at 70.5 h |
| --- | --- |
| Cc1ccccc1N1CCCN(C(=O)c2cn(C)c3ccccc23)CC1 | -8.98% |
| CCc1cc(NCCCOC2CCCC2)ncn1 | -10.7% |
| COc1cc2c(cc1CN1CCCCC1CN1CCOCC1)CCC2 (centres undefined) | 1.06% |
| COCCN(C)CC(=O)N1CCCC2(CCC(=O)N(CC3CC3)C2)C1 (centres undefined) | -27.5% |
| Cc1nccn1CCCC(=O)N1CCN(c2cccnc2)CC1 | 4.06% |
| NC(=O)CCn1cc(CNCCCc2ccccc2O)c2ccccc21 | 8.33% |
| CCc1c(C)nn(C)c1NC(=O)N1CCCOC(Cn2cccn2)C1 (centres undefined) | -4.64% |
| CC(C)Cc1nc(CCn2ccc(=O)[nH]c2=O)n(-c2ccccn2)n1 | 11.3% |
| Cn1nccc1CCNC(=O)[C@H]1CNC[C@H](C(=O)N2CCCC2)C1 | 0.341% |
| Cc1ncc(CC(=O)N2CCC(N3C[C@@H](C)O[C@@H](C)C3)CC2)c(=O)[nH]1 | 9.33% |
| O=C(NC1CC1)c1cn(C2CCN(c3cc(C4CC4)ncn3)CC2)nn1 | 30% |
| COCc1noc(Cn2ccc3ncccc3c2=O)n1 | -7.25% |
| COc1ccc2cc(C3CN(C(=O)N(C)C)CCO3)ccc2c1 (centres undefined) | 26.1% |
| Cc1cc(-n2cccn2)ccc1CN1C[C@@H](CN(C)C)[C@@H](CO)C1 | -8.41% |
| Cc1ccnc(NCCCN2CCc3ccccc32)n1 | -2.9% |
| CSCCCN1CCCC(Cn2ccnc2)C1 (centres undefined) | -11.5% |
| Cc1ccncc1C(=O)N1CCCC(C(=O)CCc2ccccc2)C1 (centres undefined) | -7.97% |
| Cc1c(Cl)c(C(=O)N2CC[C@H](N3CCOCC3)[C@H](CCCO)C2)nn1C | 3.03% |
| CN1CCCC2(CC1)CCN(C(=O)CCc1ccccc1O)CC2 | 6.16% |
| Cc1cnn(C2(C(=O)O)CCN(Cc3oc4ccccc4c3C)CC2)c1 | -8.33% |
| CC(C)N1CC(C(=O)NCCc2csc(-c3ccncc3)n2)CC1=O (centres undefined) | 34.8% |
| CNC(=O)CC1CCN(Cc2nc(-c3ccc(SC)cc3)oc2C)CC1 | -6.83% |
